Key:
[1] = tested on: HCT116-derived xenograft tumors; assay: shLats1/2 HCT116 subcutaneous xenograft treated with IKE; format: in vivo, nude mice
Experimental: For shLats1/2 s.c. tumor models, female athymic nu/nu mice aged 6 to 8 weeks were injected in the right flank with 2×10^6 shNT HCT116 cells or shLats1/2 HCT116 cells. Tumors were measured with calipers every day. When tumors reached a mean volume of 90 mm^3, mice were randomized into four groups and treated with vehicle (65% D5W (5% dextrose in water), 5% Tween-80, 30% PEG-400) or 50 mg/kg IKE (65% D5W (5% dextrose in water), 5% Tween-80, 30% PEG-400) via IP injection once a day. At the end of the study, mice were euthanized with CO2 and tumors were taken for measurement of weight.
To determine whether Lats1/2, the kinases that directly phosphorylate and inactivate YAP, can have similar effects in vivo as Merlin, subcutaneous xenograft tumors were formed from HCT116 cells harboring hairpins targeting Lats1/2. In particular, HCT116 cells containing non-targeting hairpins or hairpins targeting both Lats1 and 2 were injected subcutaneously into nude mice (n=6 per group). Tumors were grown to a volume of 90 mm^3, at which point they were injected […] with 50 mg/kg imidazole ketone erastin (IKE) once a day for 12 days. Tumor volume was measured daily by caliper. Images of resected tumors and their masses were also quantified (FIGS. 19B-19C). Imidazole ketone erastin (IKE) is an erastin analog that is amenable for in vivo use because of the increased solubility and stability.

HCT116 cells [2] = assay: Cell death inhibitors in sparse HCT116 cells under cystine starvation or RSL3; format: cell-based, human; conditions: 5×10^4 cells/well; for inhibition of RSL3-induced cell death: 5 μM RSL3 24 h, with cell death inhibitors; for inhibition of cystine starvation-induced cell death: cystine-free media 30 h, Fer-1 1 μM, DFO 50 μg/mL, Z-VAD-FMK 20 μM, GSK'872 10 μM
Experimental: (§1) Measurement of cell death, cell viability and lipid peroxidation. Cell death was analyzed by propidium iodide (Invitrogen, Waltham, Mass., USA) or SYTOX Green (Invitrogen) staining followed by microscopy or flow cytometry. For 3D spheroids, cell viability was determined using the CellTiter-Glo® 3D Cell Viability Assay (Promega, Madison, Wis., USA) according to the manufacturer's instructions. Viability was calculated by normalizing ATP levels to spheroids treated with normal full media. To analyze lipid peroxidation, cells were stained with 5 μM BODIPY-C11 (Invitrogen) for 30 minutes at 37° C. followed by flow cytometric analysis.
To confirm that sparse HCT116 cells were dying from ferroptosis but not another cell death modality, various cell death inhibitors were tested: ferrostatin-1 (Fer-1) and DFO, which inhibit ferroptosis, Z-VAD-FMK, a pan-caspase inhibitor, and GSK'872, a selective RIPK3 inhibitor that blocks necroptosis. HCT116 cells were seeded at a density of 5×10^4 cells/well and grown for 24 hours. Cells were washed in PBS and cultured in cystine-free media with the indicated treatments for 30 h. Fer-1: Ferrostatin-1, 1 μM; DFO: iron chelator, 50 μg/mL; Z-VAD-FMK: pan-caspase inhibitor, 20 μM; GSK'872: RIPK3 inhibitor, 10 μM. HCT116 cells were seeded at a density of 5×10^4 cells/well and grown for 24 hours, then treated with 5 μM RSL3 and the indicated cell death inhibitors for 24 hours before measuring cell death. These experiments confirmed that cells underwent ferroptosis, instead of other modes of cell death, under these conditions (FIGS. 6C-6D). Similar cell density-dependent ferroptosis was previously observed by Seiler et al., Cell Metab. 8: 237-248 (2008) and Schneider et al., Neoplasia 12:254-263 (2010). In Seiler et al., mouse embryonic fibroblasts (MEFs) harboring two floxed GPX4 alleles survived and grew when seeded at high density, but upon passage at lower density they died rapidly. In Schneider et al., GPX4-deficient MEFs formed 3D tumor spheroids as well as wild-type MEFs by an unknown mechanism.

HCT116 cells [3] = assay: Ferroptosis in confluent HCT116 cells expressing shEcad, shMerlin or shLats1/2; format: cell-based, human; conditions: cystine starvation or RSL3 plus
Experimental: as §1
The involvement of the Hippo signaling in the regulation of ferroptosis by cell-cell contact was also assessed. Cells depleted of Ecad, Merlin, or Lats were generated using shRNA technology. HCT116 cells were infected by lentiviruses expressing shRNA sequences targeting Ecad (shEcad), Merlin (shMerlin), or Lats1/2 (shLats1/2), as indicated. Knockdown efficiency was confirmed by Western blot (FIG. 2B). […] Cell death was measured at 30 h using SYTOX Green staining followed by flow cytometry. Lipid ROS was measured at 24 hours using C11-BODIPY staining coupled with flow cytometry. […] Cell death was measured at 18 h and lipid ROS was measured at 14 h (FIG. 11A).

[4] = tested on: tumor spheroids of HCT116 cells; assay: Erastin-induced cell death in HCT116 tumor spheroids; format: cell-based, human; conditions: 15 μM erastin with 2 μM Fer-1, 30 h
Experimental: Generation of three-dimensional spheroids. Spheroids were generated by plating tumor cells at 10^3/well into U-bottom Ultra Low Adherence (ULA) 96-well plates (Corning, Tewksbury, Mass., USA). Optimal three-dimensional structures were achieved by centrifugation at 600 g for 5 min followed by addition of 2.5% Matrigel (Corning). Plates were incubated for 72 h at 37° C., 5% CO2, 95% humidity for formation of a single spheroid of cells. Spheroids were then treated with erastin in fresh medium containing Matrigel for the indicated time.
as §1, with “To analyze lipid peroxidation, cells were stained with 5 μM BODIPY-C11 (Invitrogen) for 30 minutes at 37° C. followed by flow cytometric analysis.” left out
Tumor spheroids generated from shEcad, shMerlin and shLats1/2 cells were treated with 15 μM erastin with or without 2 μM Fer-1 for 30 h, and dead cells were stained green by SYTOX Green. Cell viability within the tumor spheroids was measured by determining ATP levels. […]

MSTO-211H cells = assay: Ferroptosis in confluent MSTO-211H cells (shMerlin, shNcad); format: cell-based, human
Experimental: as §1
To confirm the ferroptosis-regulating role of Merlin in mesothelioma cells, the effect of Merlin knockdown on ferroptosis sensitivity was assessed. MSTO-211H cells were infected with lentiviruses expressing shMerlin. RNAi knockdown efficiency was confirmed by Western blot (FIG. 3F). Then, shNT or shMerlin MSTO-211H cells were cultured to high confluence, at which point they were treated with media containing or lacking cystine, with or without Fer-1 for 24 h. Cell death was measured by SYTOX Green staining followed by flow cytometry (FIG. 3G). To measure lipid reactive species, shNT or shMerlin MSTO-211H cells were treated for 18 h, at which point they were stained with 2 μM C11-BODIPY for lipid ROS measurement (FIG. 311). Confluent MSTO-211H cells expressing shNT or shMerlin were also treated with 1 μM RSL3 with or without […] Fer-1. Cell death (left, 24 h after treatment) and lipid ROS production (right, 16 h) were measured (FIG. 13B).
Therefore, the cell density dependence of ferroptosis is not limited to epithelial cells expressing Ecad. […] To assess the expression of N-cadherin in MSTO-211H mesothelioma cells, the cells were cultivated at different cell densities, and the levels of Ncad, p-YAP and total YAP were analyzed by Western blot. […] Therefore, the potential role of Ncad in ferroptosis was tested. MSTO-211H cells were infected with lentiviruses expressing Ncad shRNA (shNcad) and selected with puromycin.

MEFs = assay: Ferroptosis and lipid ROS in MEFs; format: cell-based, mouse; conditions: Ferrostatin-1 2 μM; cystine starvation, erastin or RSL3
Experimental: as §1
Merlin-regulated ferroptosis in cell density dependent manner was also observed in MEFs, which are not of epithelial origin. Cell death of MEFs with different cell density induced by cystine starvation for 12 h was measured by PI staining (FIG. 15A), and flow cytometry (FIG. 15B). The effect of cystine starvation on lipid ROS production in MEFs cells with different cell density (6 h treatment) is also shown in FIG. 15B. […] As shown in FIGS. 15A-15D, increased cell density mitigated both cell death and lipid ROS generation induced by cystine starvation, erastin and RSL3 in MEFs.
MEFs also regulated the activity of YAP at high density in a Merlin-dependent manner. MEFs seeded at increasing density were probed for YAP localization by Immunofluorescence (FIG. 15E). The effect of Merlin was assessed by infecting MEFs with shMerlin lentivirus and selected with puromycin. […] As shown in FIGS. 15E-15F, with increasing cell confluence, there was an increase of YAP nuclear exclusion in MEFs, which was attenuated by Merlin knockdown.

HCT116 cells [5] = assay: Ferroptosis in HCT116 cells expressing PAK-CAAX; format: cell-based, human
211H mesothelioma cells = assay: Sorafenib-induced ferroptosis; format: cell-based, human; conditions: 10 μM sorafenib
Experimental: (§2) The effect of sorafenib on cell density-dependent ferroptosis was determined. First, HCT116 cells were seeded at a density of 0.5×10^5 cells/3.5 cm2 well (sparse) or 4×10^5 cells/3.5 cm2 well (confluent) and grown for 24 h. Cells were then treated with DMSO, 10 μM sorafenib, or 10 μM sorafenib and 2 μM Fer-1 as indicated. […] Second, ΔEcad or the parental HCT116 cells were seeded at 4×10^5 cells/3.5 cm2 well and grown for 24 h. Cells were then treated with 10 μM sorafenib and 2 μM Fer-1 as indicated. Third, HCT116 shNT or shMerlin cells, MSTO-211H shNT or shMerlin cells, HCT116 cells expressing YAP^S127A or the parental cells, MSTO-211H cells expressing YAP^S127A or the parental cells, and HCT116 shNT or shLats1/2 cells were seeded at high density and treated with 10 μM sorafenib and 2 μM Fer-1 as indicated.

HCT116 cells [6] = assay: Sorafenib-induced ferroptosis; format: cell-based, human; conditions: 10 μM sorafenib
Experimental: as §2

malignant mesothelioma = conditions: clinical trials; cited from earlier work
211H cells = assay: Verteporfin and cystine starvation-induced ferroptosis; format: cell-based, human; conditions: verteporfin 0.5 μM
Experimental: (§3) To further confirm this conclusion, a pharmacological analysis was performed. As a transcriptional coactivator, YAP regulates the expression of multiple target genes through its interaction with the TEAD family of transcriptional factors. Verteporfin (VP), a pharmacological agent that can inhibit the interaction of YAP with the TEAD family members was used to determine the effect of Merlin on ferroptosis. […] YAP^S127A-expressing cells were also treated with verteporfin (0.5 μM) after 24 h of cystine starvation in shMerlin HCT116 or 211H cells.

HCT116 cells [7] = assay: as above; format: cell-based, human; conditions: verteporfin 0.5 μM
Experimental: as §3

For `CC(C)Oc1ccc(C(=O)Cn2ccnc2)cc1-n1c(CN2CCN(C(=O)COc3ccc(Cl)cc3)CC2)nc2ccccc2c1=O` [IKE, imidazole ketone erastin], which “mass of resected xenograft tumors” value ([1]; Lats1/2 depleted HCT116 tumors, 50 mg/kg IKE once a day) is on record?
The value was “reduced”.

What about the “xenograft tumor growth (volume)” value ([1]; shLats1/2 HCT116 tumors, 50 mg/kg IKE once a day for 12 days) of the same compound?
Its value is “grew slowly or receded”.

Which results are given for `CCOC(=O)c1ccc(NC2CCCCC2)c(N)c1` [Fer-1, Ferrostatin-1]?
inhibition of RSL3-induced cell death (HCT116 cells [2]): inhibited; inhibition of cystine starvation-induced cell death (HCT116 cells [2]): inhibited; block of cell death by Fer-1, confluent knockdown cells (HCT116 cells [3]): blocked cell death; block of erastin-induced cell death in spheroids by Fer-1 [4]: blocked cell death; block of RSL3-induced ferroptosis and lipid ROS in shMerlin cells by Fer-1 (MSTO-211H cells; 1 μM RSL3 with 204 Fer-1): blocked; block of lipid ROS production in cystine-deprived shMerlin cells by Fer-1 (MSTO-211H cells; high confluence, 18 h): blocked; block of cystine deprivation-induced ferroptosis in shMerlin cells by Fer-1 (MSTO-211H cells; high confluence, cystine-free 24 h): blocked; block of cell death and lipid ROS in confluent Merlin RNAi MEFs (MEFs): blocked; inhibition of RSL3-induced ferroptosis in PAK-CAAX cells by Fer-1 (HCT116 cells [5]): inhibited; inhibition of cystine deprivation-induced ferroptosis in PAK-CAAX cells by Fer-1 (HCT116 cells [5]): inhibited

For `CNC(=O)c1cc(Oc2ccc(NC(=O)Nc3ccc(Cl)c(C(F)(F)F)c3)cc2)ccn1` [sorafenib], which “sorafenib-induced ferroptosis at high cell density after inhibition of Merlin or activation of YAP” value (211H mesothelioma cells) is on record?
The value was “sensitize these cells to sorafenib-induced ferroptosis at high cell density”.

And the “sorafenib-induced ferroptosis at high cell density after loss of Ecad, Lats1/2, inhibition of Merlin or activation of YAP” value (HCT116 cells [6])?
Its value is “sensitize these cells to sorafenib-induced ferroptosis at high cell density”.

What about the “sorafenib-induced ferroptosis, sparse versus confluent cells” value (HCT116 cells [6]) of the same compound?
The value was “could induce cell density-dependent ferroptosis”.

What about the “clinical outcome in malignant mesothelioma” value (malignant mesothelioma) of the same compound?
Its value is “can stabilize, but not necessarily treat mesothelioma”.

Which “inhibition of RSL3-induced cell death” value (HCT116 cells [2]) does the source give for `CC(=O)N(O)CCCCCNC(=O)CCC(=O)N(O)CCCCCNC(=O)CCC(=O)N(O)CCCCCN` [DFO] here?
Its value is “inhibited”.

And the “inhibition of cystine starvation-induced cell death” value (HCT116 cells [2])?
The value was “inhibited”.

For Verteporfin, which “effect of Merlin knockdown and YAP^S127A overexpression on cystine starvation-induced ferroptosis” value (211H cells; high density) is on record?
The value was “ablated the effect of Merlin knockdown and YAP^S127A overexpression”.

And the “sensitivity of shMerlin cells to cystine starvation-induced ferroptosis” value (211H cells; 24 h cystine starvation)?
The value was “reduced cells sensitivity to ferroptosis”.

And the “effect of Merlin knockdown and YAP^S127A overexpression on cystine starvation-induced ferroptosis” value (HCT116 cells [7]; high density)?
Its value is “ablated the effect of Merlin knockdown and YAP^S127A overexpression”.

What about the “sensitivity of shMerlin cells to cystine starvation-induced ferroptosis” value (HCT116 cells [7]; 24 h cystine starvation) of the same compound?
The value was “reduced cells sensitivity to ferroptosis”.

Reference: patent US20220249484A1, “METHODS FOR PREDICTING RESPONSIVENESS OF CANCER TO FERROPTOSIS-INDUCING THERAPIES” (Memorial Sloan Kettering Cancer Center, priority 2019, published 2022)
